Literature values as cited in patent US20060172006A1, “Sustained-release tramadol formulations with 24-hour clinical efficacy” (priority 2003, published 2006).
Counter-ions that a name gives are not always drawn.

Conditions: human, in vivo

## COc1cccc(C2(O)CCCCC2CN(C)C)c1 (stereo not shown) [tramadol HCl, Tramadol hydrochloride]
  Estimated incidence of seizures in patients: less than 1%
